Some results are limits rather than exact numbers.

Assay [1] addresses T1, Axl (Homo sapiens, UniProt P30530).
T1 construct: purchased Life Technologies
T1 sequence (P30530 26-894): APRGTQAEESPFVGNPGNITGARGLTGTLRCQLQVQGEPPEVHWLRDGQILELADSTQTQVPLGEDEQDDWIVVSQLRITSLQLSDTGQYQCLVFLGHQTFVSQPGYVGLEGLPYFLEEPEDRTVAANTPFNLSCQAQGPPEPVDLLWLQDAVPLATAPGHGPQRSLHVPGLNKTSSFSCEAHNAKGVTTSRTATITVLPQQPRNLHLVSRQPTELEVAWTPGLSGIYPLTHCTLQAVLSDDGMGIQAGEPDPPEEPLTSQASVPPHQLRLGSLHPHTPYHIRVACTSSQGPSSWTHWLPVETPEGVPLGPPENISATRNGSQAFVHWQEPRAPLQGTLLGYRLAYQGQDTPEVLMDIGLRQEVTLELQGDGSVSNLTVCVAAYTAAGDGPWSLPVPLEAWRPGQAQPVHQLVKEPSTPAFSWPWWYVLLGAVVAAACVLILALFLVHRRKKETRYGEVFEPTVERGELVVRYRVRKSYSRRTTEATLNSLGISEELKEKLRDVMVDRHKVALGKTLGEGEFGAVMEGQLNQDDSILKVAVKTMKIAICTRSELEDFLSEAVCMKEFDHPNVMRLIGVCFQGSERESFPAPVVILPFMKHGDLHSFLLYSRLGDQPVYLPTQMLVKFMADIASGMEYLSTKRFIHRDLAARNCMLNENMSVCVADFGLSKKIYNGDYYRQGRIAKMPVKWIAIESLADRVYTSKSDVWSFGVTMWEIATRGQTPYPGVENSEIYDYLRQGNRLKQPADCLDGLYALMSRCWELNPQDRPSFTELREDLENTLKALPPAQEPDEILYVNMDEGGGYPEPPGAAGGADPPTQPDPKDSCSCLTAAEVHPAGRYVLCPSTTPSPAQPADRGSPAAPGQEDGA
As to the kind of experiment: LanthaScreen Eu kinase binding assay, Axl. As to conditions: Tracer 236.

Assay [2] concerns the target T2, Mer (Homo sapiens, UniProt Q12866).
T2 construct: purchased Life Technologies
T2 sequence (Q12866 21-999): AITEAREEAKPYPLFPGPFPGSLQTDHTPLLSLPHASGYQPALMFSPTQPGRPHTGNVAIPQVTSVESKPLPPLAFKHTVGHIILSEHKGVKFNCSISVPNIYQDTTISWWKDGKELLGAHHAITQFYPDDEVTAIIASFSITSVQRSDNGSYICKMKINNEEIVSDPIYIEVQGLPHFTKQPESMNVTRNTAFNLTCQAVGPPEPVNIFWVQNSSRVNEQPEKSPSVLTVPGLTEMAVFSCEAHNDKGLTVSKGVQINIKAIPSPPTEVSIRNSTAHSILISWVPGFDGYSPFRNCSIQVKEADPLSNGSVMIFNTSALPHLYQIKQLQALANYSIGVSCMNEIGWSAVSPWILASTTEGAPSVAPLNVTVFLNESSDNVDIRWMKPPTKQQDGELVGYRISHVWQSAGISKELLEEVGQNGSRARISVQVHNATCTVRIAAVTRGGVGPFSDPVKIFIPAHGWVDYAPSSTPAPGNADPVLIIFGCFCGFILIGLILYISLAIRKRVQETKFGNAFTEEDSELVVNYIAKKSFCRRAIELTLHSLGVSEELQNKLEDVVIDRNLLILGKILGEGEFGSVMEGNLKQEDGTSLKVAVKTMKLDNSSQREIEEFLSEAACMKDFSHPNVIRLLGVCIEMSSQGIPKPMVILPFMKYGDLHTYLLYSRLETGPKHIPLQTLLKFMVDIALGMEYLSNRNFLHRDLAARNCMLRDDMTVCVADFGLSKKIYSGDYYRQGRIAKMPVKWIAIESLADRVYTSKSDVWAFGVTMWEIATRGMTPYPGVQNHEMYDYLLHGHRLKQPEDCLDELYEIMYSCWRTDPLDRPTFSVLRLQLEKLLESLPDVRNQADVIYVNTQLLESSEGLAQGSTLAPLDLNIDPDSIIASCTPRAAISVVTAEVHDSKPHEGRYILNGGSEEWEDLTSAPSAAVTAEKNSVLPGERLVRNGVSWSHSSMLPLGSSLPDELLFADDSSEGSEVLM
Briefly: LanthaScreen Eu kinase binding assay, Mer. As to conditions: Tracer 236.

Assay [3] deals with T3, TYRO3 (Homo sapiens, UniProt Q06418).
T3 construct: purchased Life Technologies
T3 sequence (Q06418 41-890): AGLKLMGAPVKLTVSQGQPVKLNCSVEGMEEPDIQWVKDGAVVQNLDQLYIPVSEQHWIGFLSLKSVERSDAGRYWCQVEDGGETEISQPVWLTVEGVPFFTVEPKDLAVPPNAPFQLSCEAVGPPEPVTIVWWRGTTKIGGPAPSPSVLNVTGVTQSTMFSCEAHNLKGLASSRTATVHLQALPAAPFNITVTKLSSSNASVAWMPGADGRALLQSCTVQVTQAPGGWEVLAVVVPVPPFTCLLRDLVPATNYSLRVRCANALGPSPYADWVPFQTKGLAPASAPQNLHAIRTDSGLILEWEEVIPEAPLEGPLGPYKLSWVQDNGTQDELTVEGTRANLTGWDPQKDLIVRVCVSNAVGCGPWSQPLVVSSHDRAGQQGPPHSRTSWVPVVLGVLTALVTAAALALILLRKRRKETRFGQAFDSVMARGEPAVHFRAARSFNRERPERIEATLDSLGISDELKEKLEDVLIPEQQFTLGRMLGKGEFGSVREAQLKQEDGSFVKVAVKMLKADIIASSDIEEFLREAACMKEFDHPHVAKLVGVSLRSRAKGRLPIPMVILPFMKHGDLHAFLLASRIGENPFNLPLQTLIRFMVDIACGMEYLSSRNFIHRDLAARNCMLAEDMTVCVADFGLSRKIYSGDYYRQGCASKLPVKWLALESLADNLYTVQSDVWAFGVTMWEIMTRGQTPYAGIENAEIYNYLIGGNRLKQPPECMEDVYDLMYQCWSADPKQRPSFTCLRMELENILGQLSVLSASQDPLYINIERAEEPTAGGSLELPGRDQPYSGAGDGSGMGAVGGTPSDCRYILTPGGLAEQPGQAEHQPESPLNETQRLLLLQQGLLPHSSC
Briefly: LanthaScreen Eu kinase binding assay, TYRO3. As to conditions: Tracer 236.

In assay [4] the target is T4, Met (Homo sapiens, UniProt P08581).
T4 construct: purchased Life Technologies
T4 sequence (P08581 25-1390): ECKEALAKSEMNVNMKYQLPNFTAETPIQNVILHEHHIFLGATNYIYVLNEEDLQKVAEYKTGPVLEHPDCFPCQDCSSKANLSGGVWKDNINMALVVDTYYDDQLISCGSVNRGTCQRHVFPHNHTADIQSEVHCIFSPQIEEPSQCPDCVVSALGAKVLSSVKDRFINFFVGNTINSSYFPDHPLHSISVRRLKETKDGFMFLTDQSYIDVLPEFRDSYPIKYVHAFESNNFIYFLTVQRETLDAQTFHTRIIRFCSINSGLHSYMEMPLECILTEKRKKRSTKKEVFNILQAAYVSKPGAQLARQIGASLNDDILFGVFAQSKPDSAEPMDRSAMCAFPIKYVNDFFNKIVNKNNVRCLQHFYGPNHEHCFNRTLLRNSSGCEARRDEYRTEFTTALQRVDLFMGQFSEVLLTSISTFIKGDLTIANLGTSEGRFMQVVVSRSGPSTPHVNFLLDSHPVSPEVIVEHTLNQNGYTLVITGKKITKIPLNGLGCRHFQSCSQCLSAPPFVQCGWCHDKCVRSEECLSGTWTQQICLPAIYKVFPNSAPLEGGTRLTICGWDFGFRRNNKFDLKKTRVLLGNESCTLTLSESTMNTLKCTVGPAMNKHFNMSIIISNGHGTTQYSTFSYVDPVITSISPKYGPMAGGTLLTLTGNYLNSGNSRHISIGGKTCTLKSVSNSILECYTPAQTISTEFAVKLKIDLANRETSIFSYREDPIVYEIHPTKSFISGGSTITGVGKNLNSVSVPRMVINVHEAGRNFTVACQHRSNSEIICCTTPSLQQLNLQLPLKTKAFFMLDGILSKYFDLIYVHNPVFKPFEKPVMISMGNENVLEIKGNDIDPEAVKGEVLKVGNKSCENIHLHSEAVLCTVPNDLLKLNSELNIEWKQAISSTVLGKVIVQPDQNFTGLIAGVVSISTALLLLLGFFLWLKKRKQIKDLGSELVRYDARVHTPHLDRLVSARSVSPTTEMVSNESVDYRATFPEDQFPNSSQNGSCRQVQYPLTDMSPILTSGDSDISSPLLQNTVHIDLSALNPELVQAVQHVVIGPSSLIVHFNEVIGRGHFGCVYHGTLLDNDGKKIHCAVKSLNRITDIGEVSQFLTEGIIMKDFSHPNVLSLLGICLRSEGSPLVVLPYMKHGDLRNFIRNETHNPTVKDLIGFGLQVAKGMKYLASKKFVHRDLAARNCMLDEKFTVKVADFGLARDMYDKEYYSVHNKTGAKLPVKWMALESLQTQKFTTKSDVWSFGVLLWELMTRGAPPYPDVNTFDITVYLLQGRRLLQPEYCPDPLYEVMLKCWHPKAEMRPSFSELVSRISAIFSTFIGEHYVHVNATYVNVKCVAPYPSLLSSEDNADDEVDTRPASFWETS
As to the kind of experiment: LanthaScreen Eu kinase binding assay, Met. To be noted: Tracer 236, read-out: cMet kinase binding activity (Kd).

As to `CCOc1cnn(Cc2cnccn2)c1C(=O)Nc1ccc(Oc2ccnc3cc(OC)c(OC)cc23)cc1F` [Compound 217], the Kd was at least 1000 nM in assay [1], 100 to 1000 nM in assay [2], at least 1000 nM in assay [3] and 100 to 1000 nM in assay [4].
For `CCOc1cn(-c2ncccc2CN(C)C)nc1C(=O)Nc1ccc(Oc2ccnc3cc(OC)c(OC)cc23)cn1` [Compound 142], the Kd in assay [1] was 100 to 1000 nM; in assay [2], below 100 nM; in assay [3], 100 to 1000 nM; in assay [4], below 100 nM.
For `CCOc1cnn(Cc2cnccc2C)c1C(=O)Nc1ccc(Oc2ccnc3cc(OC)c(OC)cc23)cc1F` [Compound 228], the Kd in assay [1] was at least 1000 nM; in assay [2], 100 to 1000 nM; in assay [3], at least 1000 nM; in assay [4], 100 to 1000 nM.
As for `CCOc1cn(C2CCNC2)nc1C(=O)Nc1ccc(Oc2ccnc3cc(OC)c(OC)cc23)cn1` (stereo not shown) [Compound 69], the Kd in assay [1] was at least 1000 nM; in assay [2] it was 100 to 1000 nM; in assay [3], at least 1000 nM; in assay [4], 100 to 1000 nM.
For `CCOc1cn(-c2cncnc2N2CCCC2)nc1C(=O)Nc1ccc(Oc2ccnc3cc(OC)c(OC)cc23)cn1` [Compound 180], the equilibrium dissociation constant (Kd) in assay [1] is 100 to 1000 nM; in assay [2] it was 100 to 1000 nM; in assay [3] it was at least 1000 nM; in assay [4], at least 1000 nM.
With `CCOc1cn(-c2ccc(F)cc2C)nc1C(=O)Nc1ccc(Oc2ccnc3cc(OC)c(OC)cc23)cc1C(F)(F)F` [Compound 109], the Kd in assay [1] was 100 to 1000 nM; in assay [2], at least 1000 nM; in assay [3], at least 1000 nM; in assay [4], 100 to 1000 nM.
As to `CCOc1cn(-c2cnccc2C)nc1C(=O)NC1CC2(C1)CC(Oc1ccnc3cc(OC)c(OC)cc13)C2` (stereo not shown) [Compound 221], the Kd in assay [1], in assay [2], in assay [3] and in assay [4] was at least 1000 nM in each case.
`CCOc1cnn(CCn2cccn2)c1C(=O)Nc1ccc(Oc2ccnc3cc(OC)c(OC)cc23)cn1` [Compound 42]: the Kd was 100 to 1000 nM in assay [1], below 100 nM in assay [2], at least 1000 nM in assay [3] and 100 to 1000 nM in assay [4].
As to `CCOc1cnn(-c2cnc(N)nc2)c1C(=O)Nc1ccc(Oc2ccnc3cc(OC(C)C)c(OC)cc23)cc1F` [Compound 232], the Kd is 100 to 1000 nM in assay [1], 100 to 1000 nM in assay [2], at least 1000 nM in assay [3] and at least 1000 nM in assay [4].
Turning to `CCOc1cn(-c2cccnc2)nc1C(=O)Nc1ncc(Oc2ccnc3cc(OC)c(OC)cc23)cc1F` [Compound 154], the Kd was below 100 nM in assay [1], below 100 nM in assay [2], at least 1000 nM in assay [3] and at least 1000 nM in assay [4].
In the case of `CCOc1cn(-c2cncnc2C(C)C)nc1C(=O)Nc1ccc(Oc2ccnc3cc(OC)c(OC)cc23)cn1` [Compound 166], the Kd in assay [1], in assay [2], in assay [3] and in assay [4] was below 100 nM in each case.
With `CCOc1cn(-c2cncnc2OC)nc1C(=O)Nc1ccc(Oc2ccnc3cc(OC)c(OC)cc23)cn1` [Compound 175], the Kd in assay [1], in assay [2], in assay [3] and in assay [4] was below 100 nM each time.
As for `CCOc1cnn(CC)c1C(=O)Nc1ccc(Oc2ccnc3cc(OC)c(OC)cc23)cn1` [Compound 28], the Kd in assay [1] is 100 to 1000 nM; in assay [2], 100 to 1000 nM; in assay [3] it was at least 1000 nM; in assay [4], 100 to 1000 nM.
For the compound `CCC(C)Oc1cc2nccc(Oc3ccc(NC(=O)c4nn(-c5cnc(N)nc5)cc4OCC(F)(F)F)nc3)c2cc1OC` (stereo not shown) [Compound 235], the Kd in assay [1] is below 100 nM; in assay [2] it was below 100 nM; in assay [3] it was below 100 nM; in assay [4], 100 to 1000 nM.
Consider `CCOc1cn(-c2ccc(F)cc2C)nc1C(=O)Nc1ccc(Oc2ccnc3cc(OC)c(OC)cc23)c(NC(C)C)c1` [Compound 91], for which the Kd in assay [1] was 100 to 1000 nM; in assay [2] it was 100 to 1000 nM; in assay [3], 100 to 1000 nM; in assay [4], at least 1000 nM.
Consider `CCOc1cn(-c2cccnc2)nc1C(=O)Nc1ncc(Oc2ccnc3cc(OC)c(OC)cc23)cn1` [Compound 47], for which the Kd in assay [1] was 100 to 1000 nM; in assay [2], 100 to 1000 nM; in assay [3] it was at least 1000 nM; in assay [4] it was at least 1000 nM.
With `COc1cc2nccc(Oc3ccc(NC(=O)c4nn(-c5ccc(F)c(Cl)c5)cc4OCC(F)(F)F)nc3)c2cc1OC` [Compound 278], the Kd in assay [1] is below 100 nM; in assay [2], below 100 nM; in assay [3], 100 to 1000 nM; in assay [4], 100 to 1000 nM.
Consider `COc1cc2nccc(Oc3ccc(NC(=O)c4nn(-c5ccc(F)cc5C)cc4OCCN(C)C)cc3F)c2cc1OC` [Compound 276], for which the Kd is below 100 nM in assay [1], below 100 nM in assay [2], 100 to 1000 nM in assay [3] and below 100 nM in assay [4].
For the compound `CCOc1cn(-c2ccc(F)cc2C)nc1C(=O)Nc1cnc(Oc2ccnc3cc(OC)c(OC)cc23)cn1` [Compound 98], the Kd in assay [1], in assay [2], in assay [3] and in assay [4] was at least 1000 nM in each case.
In the case of `COCCOc1cnn(-c2cnc(N)nc2)c1C(=O)Nc1ccc(Oc2ccnc3cc(OC)c(OC)cc23)cn1` [Compound 245], the Kd is at least 1000 nM in assay [1], 100 to 1000 nM in assay [2], at least 1000 nM in assay [3] and at least 1000 nM in assay [4].
For the compound `CCOc1cnn(CCN(C)C)c1C(=O)Nc1ccc(Oc2ccnc3cc(OC)c(OC)cc23)cn1` [Compound 52], the Kd in assay [1], in assay [2], in assay [3] and in assay [4] was at least 1000 nM in each case.
As for `CCOc1cnn(-c2ccc(C#N)nc2)c1C(=O)Nc1ccc(Oc2ccnc3cc(OC)c(OC)cc23)cn1` [Compound 53], the Kd in assay [1], in assay [2], in assay [3] and in assay [4] was at least 1000 nM each time.

These data come from US10934274B2, “Quinoline derivatives as TAM RTK inhibitors” (Qurient Co., Ltd., priority 2015, dated 2021).
